Experiments:
[1] = Cytotoxicity, HepG2 cells, Resazurin assay; type: cell-based; conditions: human
HBV = assay: anti HBV activity, HepG2.117 inducibly HBV producing cell line (Tet-off), intracellular HBV DNA by realtime PCR; type: cell-based; conditions: Hepatitis B virus, 72 h, HepG2.117 cells, 3 days of treatment

Cn1cc(S(=O)(=O)NC2(C)CC(F)(F)C2)c(F)c1C(=O)Nc1ccnc(Br)c1F [Compound 131, N-(2-bromo-3-fluoro-4-pyridyl)-4-[(3,3-difluoro-1-methyl-cyclobutyl)sulfamoyl]-3-fluoro-1-methyl-pyrrole-2-carboxamide]
CC50 at 4 days [1]: > 25000 nM
EC50 (HBV): 20 nM

Cc1cc(NC(=O)c2c(Cl)c(S(=O)(=O)NC3(C)CC(F)(F)C3)cn2C)cc(F)n1 [Compound 163, 3-chloro-4-[(3,3-difluoro-1-methyl-cyclobutyl)sulfamoyl]-N-(2-fluoro-6-methyl-4-pyridyl)-1-methyl-pyrrole-2-carboxamide]
CC50 at 4 days [1]: > 25000 nM
EC50 (HBV): 20 nM

C[C@@H](NS(=O)(=O)c1cn(C)c(C(=O)Nc2ccnc(F)c2F)c1Cl)C(F)(F)F [Compound 138, 3-chloro-N-(2,3-difluoro-4-pyridyl)-1-methyl-4-[[(1R)-2,2,2-trifluoro-1-methyl-ethyl]sulfamoyl]pyrrole-2-carboxamide]
CC50 at 4 days [1]: > 25000 nM
EC50 (HBV): 90 nM

Cn1cc(S(=O)(=O)NC2(C)CC(F)(F)C2)c(F)c1C(=O)Nc1ccnc(Br)c1 [Compound 117, N-(2-bromo-4-pyridyl)-4-[(3,3-difluoro-1-methyl-cyclobutyl)sulfamoyl]-3-fluoro-1-methyl-pyrrole-2-carboxamide]
CC50 at 4 days [1]: > 25000 nM
EC50 (HBV): 10 nM

C[C@@H](NS(=O)(=O)c1cc(C(=O)Nc2ccnc(C#N)c2)n(C)c1)C(C)(F)F [Compound 101, N-(2-cyano-4-pyridyl)-4-[[(1R)-2,2-difluoro-1-methyl-propyl]sulfamoyl]-1-methyl-pyrrole-2-carboxamide]
CC50 at 4 days [1]: > 25000 nM
EC50 (HBV): 430 nM

Cn1cc(S(=O)(=O)NC2(C(F)(F)F)CCC2)c(Cl)c1C(=O)Nc1ccnc(Br)c1 [Compound 110, N-(2-bromo-4-pyridyl)-3-chloro-1-methyl-4-[[1-(trifluoromethyl)cyclobutyl]sulfamoyl]pyrrole-2-carboxamide]
CC50 at 4 days [1]: > 25000 nM
EC50 (HBV): 20 nM

CC(C)NS(=O)(=O)c1cn(C)c(C(=O)Nc2ccnc(Cl)c2)c1F [Compound 79, N-(2-chloro-4-pyridyl)-3-fluoro-4-(isopropylsulfamoyl)-1-methyl-pyrrole-2-carboxamide]
CC50 at 4 days [1]: > 25000 nM
EC50 (HBV): 150 nM

Cn1cc(S(=O)(=O)NC2(C(F)(F)F)CCC2)c(F)c1C(=O)Nc1ccnc(C#N)c1F [Compound 167, N-(2-cyano-3-fluoro-4-pyridyl)-3-fluoro-1-methyl-4-[[1-(trifluoromethyl)cyclobutyl]sulfamoyl]pyrrole-2-carboxamide]
CC50 at 4 days [1]: > 25000 nM
EC50 (HBV): 5 nM

Cn1cc(S(=O)(=O)NC2(C(F)(F)F)CCC2)c(F)c1C(=O)Nc1ccnc(F)c1F [Compound 170, N-(2,3-difluoro-4-pyridyl)-3-fluoro-1-methyl-4-[[1-(trifluoromethyl)cyclobutyl]sulfamoyl]pyrrole-2-carboxamide]
CC50 at 4 days [1]: > 25000 nM
EC50 (HBV): 40 nM

Cn1cc(S(=O)(=O)NC2(C(F)(F)F)CCC2)c(F)c1C(=O)Nc1ccnc(F)c1 [Compound 169, 3-fluoro-N-(2-fluoro-4-pyridyl)-1-methyl-4-[[1-(trifluoromethyl)cyclobutyl]sulfamoyl]pyrrole-2-carboxamide]
CC50 at 4 days [1]: > 25000 nM
EC50 (HBV): 30 nM

Cn1cc(S(=O)(=O)NC2(C)CC(F)(F)C2)c(Cl)c1C(=O)Nc1ccnc(C(F)(F)F)c1 [Compound 66, 3-chloro-4-[(3,3-difluoro-1-methyl-cyclobutyl)sulfamoyl]-1-methyl-N-[2-(trifluoromethyl)-4-pyridyl]pyrrole-2-carboxamide]
CC50 at 4 days [1]: > 25000 nM
EC50 (HBV): 90 nM

C[C@@H](NS(=O)(=O)c1cn(C)c(C(=O)Nc2ccnc(C(F)F)c2F)c1Cl)C(C)(F)F [Compound 147, 3-chloro-N-[2-(difluoromethyl)-3-fluoro-4-pyridyl]-4-[[(1R)-2,2-difluoro-1-methyl-propyl]sulfamoyl]-1-methyl-pyrrole-2-carboxamide]
CC50 at 4 days [1]: > 25000 nM
EC50 (HBV): 20 nM

CC(C)NS(=O)(=O)c1cn(C)c(C(=O)Nc2ccnc(C(F)(F)F)c2)c1F [Compound 78, 3-fluoro-4-(isopropylsulfamoyl)-1-methyl-N-[2-(trifluoromethyl)-4-pyridyl]pyrrole-2-carboxamide]
CC50 at 4 days [1]: > 25000 nM
EC50 (HBV): 260 nM

Cc1cc(NC(=O)c2c(F)c(S(=O)(=O)NC3(C(F)(F)F)CCC3)cn2C)cc(C#N)n1 [Compound 171, N-(2-cyano-6-methyl-4-pyridyl)-3-fluoro-1-methyl-4-[[1-(trifluoromethyl)cyclobutyl]sulfamoyl]pyrrole-2-carboxamide]
CC50 at 4 days [1]: > 25000 nM
EC50 (HBV): 100 nM

Cn1cc(S(=O)(=O)NC2(C(F)(F)F)CCC2)c(F)c1C(=O)Nc1ccnc(C(F)F)c1 [Compound 119, N-[2-(difluoromethyl)-4-pyridyl]-3-fluoro-1-methyl-4-[[1-(trifluoromethyl)cyclobutyl]sulfamoyl]pyrrole-2-carboxamide]
CC50 at 4 days [1]: > 25000 nM
EC50 (HBV): 5 nM

Cn1cc(S(=O)(=O)NC2CCC2(F)F)c(F)c1C(=O)Nc1ccnc(C(F)F)c1 (centres unmarked) [Compound 127, 4-[(2,2-difluorocyclobutyl)sulfamoyl]-N-[2-(difluoromethyl)-4-pyridyl]-3-fluoro-1-methyl-pyrrole-2-carboxamide]
CC50 at 4 days [1]: > 25000 nM
EC50 (HBV): 50 nM

C[C@@H](NS(=O)(=O)c1cn(C)c(C(=O)Nc2ccc(F)nc2F)c1Cl)C(F)(F)F [Compound 77, 3-chloro-N-(2,6-difluoro-3-pyridyl)-1-methyl-4-[[(1R)-2,2,2-trifluoro-1-methyl-ethyl]sulfamoyl]pyrrole-2-carboxamide]
CC50 at 4 days [1]: > 25000 nM
EC50 (HBV): 300 nM

CC[C@H](NS(=O)(=O)c1cn(C)c(C(=O)Nc2ccnc(C(F)F)c2)c1Cl)C(F)(F)F [Compound 84, 3-chloro-N-[2-(difluoromethyl)-4-pyridyl]-1-methyl-4-[[(1S)-1-(trifluoromethyl)propyl]sulfamoyl]pyrrole-2-carboxamide]
CC50 at 4 days [1]: > 25000 nM
EC50 (HBV): 110 nM

C[C@H](NS(=O)(=O)c1cn(C)c(C(=O)Nc2ccnc(C#N)c2)c1F)C(C)(F)F [Compound 58, N-(2-cyano-4-pyridyl)-4-[[(1S)-2,2-difluoro-1-methyl-propyl]sulfamoyl]-3-fluoro-1-methyl-pyrrole-2-carboxamide]
CC50 at 4 days [1]: > 25000 nM
EC50 (HBV): 140 nM

CC[C@@H](C)NS(=O)(=O)c1cn(C)c(C(=O)Nc2ccnc(Cl)c2)c1Cl [Compound 73, 3-chloro-N-(2-chloro-4-pyridyl)-1-methyl-[[(1R)-1-methylpropyl]-sulfamoyl]pyrrole-2-carboxamide]
CC50 at 4 days [1]: 21600 nM
EC50 (HBV): 90 nM

Cc1cc(NC(=O)c2c(Cl)c(S(=O)(=O)N[C@H](C)C(F)(F)F)cn2C)cc(Cl)n1 [Compound 141, 3-chloro-N-(2-chloro-6-methyl-4-pyridyl)-1-methyl-4-[[(1R)-2,2,2-trifluoro-1-methyl-ethyl]sulfamoyl]pyrrole-2-carboxamide]
CC50 at 4 days [1]: > 25000 nM
EC50 (HBV): 40 nM

Cn1cc(S(=O)(=O)NC2(CO)COC2)c(Cl)c1C(=O)Nc1ccnc(Cl)c1 [Compound 92]
CC50 at 4 days [1]: > 25000 nM
EC50 (HBV): 440 nM

C[C@@H](NS(=O)(=O)c1cn(C)c(C(=O)Nc2cnc(F)c(F)c2)c1Cl)C(F)(F)F [Compound 57, 3-chloro-N-(5,6-difluoro-3-pyridyl)-1-methyl-4-[[(1R)-2,2,2-trifluoro-1-methyl-ethyl]sulfamoyl]pyrrole-2-carboxamide]
CC50 at 4 days [1]: > 25000 nM
EC50 (HBV): 60 nM

CC[C@@H](C)NS(=O)(=O)c1cn(C)c(C(=O)Nc2ccnc(Cl)c2)c1F [Compound 69, N-(2-chloro-4-pyridyl)-3-fluoro-1-methyl-4-[[(1R)-1-methylpropyl]sulfamoyl]pyrrole-2-carboxamide]
CC50 at 4 days [1]: > 25000 nM
EC50 (HBV): 30 nM

Cc1c(S(=O)(=O)N[C@H](C)C(F)(F)F)c(F)c(C(=O)Nc2ccnc(C#N)c2)n1C [Compound 71, N-(2-cyano-4-pyridyl)-3-fluoro-1,5-dimethyl-4-[[(1R)-2,2,2-trifluoro-1-methyl-ethyl]sulfamoyl]pyrrole-2-carboxamide]
CC50 at 4 days [1]: > 25000 nM
EC50 (HBV): 20 nM

C[C@@H](NS(=O)(=O)c1cn(C)c(C(=O)Nc2ccnc(C(C)(F)F)c2)c1Cl)C(F)(F)F [Compound 182, 3-chloro-N-[2-(1,1-difluoroethyl)-4-pyridyl]-1-methyl-4-[[(1R)-2,2,2-trifluoro-1-methyl-ethyl]sulfamoyl]pyrrole-2-carboxamide]
CC50 at 4 days [1]: > 25000 nM
EC50 (HBV): 1300 nM

C[C@@H](NS(=O)(=O)c1cn(C)c(C(=O)Nc2ccnc(C(F)F)c2F)c1Cl)C(F)(F)F [Compound 142, 3-chloro-N-[2-(difluoromethyl)-3-fluoro-4-pyridyl]-1-methyl-4-[[(1R)-2,2,2-trifluoro-1-methyl-ethyl]sulfamoyl]pyrrole-2-carboxamide]
CC50 at 4 days [1]: > 25000 nM
EC50 (HBV): 20 nM

C[C@@H](NS(=O)(=O)c1cn(C)c(C(=O)Nc2c(F)c(F)nc(F)c2Cl)c1Cl)C(F)(F)F [Compound 187, 3-chloro-N-(3-chloro-2,5,6-trifluoro-4-pyridyl)-1-methyl-4-[[(1R)-2,2,2-trifluoro-1-methyl-ethyl]sulfamoyl]pyrrole-2-carboxamide]
CC50 at 4 days [1]: > 25000 nM
EC50 (HBV): 710 nM

Cn1cc(S(=O)(=O)NC2(C(F)(F)F)CCC2)c(F)c1C(=O)Nc1ccnc(Cl)c1F [Compound 120, N-(2-chloro-3-fluoro-4-pyridyl)-3-fluoro-1-methyl-4-[[1-(trifluoromethyl)cyclobutyl]sulfamoyl]pyrrole-2-carboxamide]
CC50 at 4 days [1]: > 25000 nM
EC50 (HBV): 5 nM

CC[C@@H](C)NS(=O)(=O)c1cn(C)c(C(=O)Nc2ccnc(C#N)c2)c1F [Compound 67]
CC50 at 4 days [1]: > 25000 nM
EC50 (HBV): 30 nM

C[C@@H](NS(=O)(=O)c1cn(C)c(C(=O)Nc2nc(F)c(F)cc2F)c1Cl)C(F)(F)F [Compound 184, 3-chloro-1-methyl-4-[[(1R)-2,2,2-trifluoro-1-methyl-ethyl]sulfamoyl]-N-(3,5,6-trifluoro-2-pyridyl)pyrrole-2-carboxamide]
CC50 at 4 days [1]: > 25000 nM
EC50 (HBV): 1200 nM
